Read-outs that look alike come from different tables or passages of the source. Each block holds one compound with its values, some of them ahead of it. Where a SMILES comes first, the peptide text is derived from it. Bridges are numbered along the chain shown (N, C = ends). [ ]: non-standard residue; d: D form. PEG12 = NCCOCCOCCOCCOCCOCCOCCOCCOCCOCCOCCOCCOCCC(=O)O; NMePhe(3-Cl) = CN[C@@H](Cc1cccc(Cl)c1)C(=O)O; NMeW = CN[C@@H](Cc1c[nH]c2ccccc12)C(=O)O; Lys(N3) = [N-]=[N+]=NCCCC[C@H](N)C(=O)O; NMeY = CN[C@@H](Cc1ccc(O)cc1)C(=O)O
Molecular target: transferrin receptor (hTfR) (Homo sapiens, UniProt P02786)
Sequence (P02786 whole entry): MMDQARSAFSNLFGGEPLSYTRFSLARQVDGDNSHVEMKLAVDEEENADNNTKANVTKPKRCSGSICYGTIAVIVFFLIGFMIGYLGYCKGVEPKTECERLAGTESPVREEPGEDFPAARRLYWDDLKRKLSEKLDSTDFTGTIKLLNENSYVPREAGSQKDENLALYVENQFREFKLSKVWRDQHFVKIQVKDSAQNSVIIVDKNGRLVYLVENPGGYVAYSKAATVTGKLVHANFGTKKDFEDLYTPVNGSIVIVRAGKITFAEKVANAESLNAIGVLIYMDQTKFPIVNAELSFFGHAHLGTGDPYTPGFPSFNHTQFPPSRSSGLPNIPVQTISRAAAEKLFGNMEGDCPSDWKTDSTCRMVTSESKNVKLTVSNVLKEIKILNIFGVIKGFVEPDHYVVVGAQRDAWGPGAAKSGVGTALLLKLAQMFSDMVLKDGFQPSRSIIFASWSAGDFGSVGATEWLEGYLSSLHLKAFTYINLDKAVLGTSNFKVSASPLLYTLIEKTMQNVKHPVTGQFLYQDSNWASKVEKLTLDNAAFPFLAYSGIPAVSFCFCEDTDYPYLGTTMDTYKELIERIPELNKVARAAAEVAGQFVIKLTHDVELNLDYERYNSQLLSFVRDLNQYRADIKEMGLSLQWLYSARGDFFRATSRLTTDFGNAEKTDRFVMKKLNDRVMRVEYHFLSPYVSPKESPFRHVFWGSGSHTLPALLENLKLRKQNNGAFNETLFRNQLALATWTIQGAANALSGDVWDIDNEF
Assay: Intermolecular interaction evaluation test between transferrin receptor (hTfR) and peptide by surface plasmon resonance (SPR)
Type: binding
In short: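 hTfR captured on Ni-NTA chip then amine-coupled; peptides run single-cycle kinetics at 5–100 nM in 10 mM HEPES pH 8.0, 150 mM NaCl, 0.05% Tween 20, 0.1% BSA, 1.0% DMSO. KD from least-squares curve fitting of sensorgrams.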

[1] = SPR, hTfR, class symbols A-D, read-out: KD (column without head, continuation of the table series)
[2] = binding to hTfR by SPR, Table 2 peptides, read-out: KD value (SPR) class
[3] = surface plasmon resonance, hTfR, read-out: KD value for hTfR by SPR (class symbol)

Compound: CC[C@H](C)[C@@H]1NC(=O)[C@H](Cc2ccc(O)cc2)NC(=O)[C@H](Cc2ccc(O)cc2)NC(=O)[C@H](CC(N)=O)NC(=O)[C@H](Cc2c[nH]c3ccccc23)NC(=O)[C@H](C(C)C)NC(=O)[C@H](Cc2ccccc2)NC(=O)[C@H](C(C)C)NC(=O)[C@H](C)NC(=O)CSC[C@@H](C(N)=O)NC(=O)[C@H](Cc2ccc(O)cc2)N(C)C(=O)[C@H](Cc2ccc(O)cc2)NC(=O)[C@H](CCCNC(=N)N)NC(=O)[C@H](CCC(=O)O)NC(=O)[C@H]([C@@H](C)CC)NC1=O [compound 251]
Kd [2]: 1 to 100 nM

Compound: CC[C@H](C)[C@@H]1NC(=O)[C@H](Cc2ccc(O)cc2)NC(=O)[C@H](Cc2ccc(O)cc2)NC(=O)[C@H](CC(N)=O)NC(=O)[C@H](Cc2c[nH]c3ccccc23)NC(=O)[C@H](C(C)C)NC(=O)[C@H](Cc2ccc(OC)cc2)N(C)C(=O)[C@H](C(C)C)NC(=O)[C@H](C)NC(=O)CSC[C@@H](C(=O)NCCOCCOCCOCCOCCOCCOCCOCCOCCOCCOCCOCCOCCC(N)=O)NC(=O)[C@H](Cc2ccc(O)cc2)N(C)C(=O)[C@H](Cc2ccc(O)cc2)NC(=O)[C@H](CCCNC(=N)N)NC(=O)[C@H](CCCNC(=N)N)NC(=O)[C@H]([C@@H](C)CC)NC1=O [compound 136] ({CH2CO}-AV[NMeY](Me)VWNYYIIRRY[NMeY]C[PEG12]-NH2; thioether N-15)
Kd (SPR, hTfR No. 894 variants with PEG12c linker (Table 2), read-out: KD): 1 to 100 nM

Compound: CC[C@H](C)[C@@H]1NC(=O)[C@H](Cc2ccc(OC)cc2)NC(=O)[C@H](Cc2ccc(O)cc2)NC(=O)[C@H](CC(N)=O)NC(=O)[C@H](Cc2c[nH]c3ccccc23)N(C)C(=O)[C@H](C(C)C)NC(=O)[C@H](Cc2cccc(Cl)c2)N(C)C(=O)[C@H](C(C)C)NC(=O)[C@H](C)NC(=O)CSC[C@@H](C(=O)NCC(=O)NCC(=O)NCC(=O)NCC(=O)N[C@@H](CO)C(=O)N[C@@H](CO)C(=O)N[C@@H](CS)C(N)=O)NC(=O)[C@H](Cc2ccc(O)cc2)N(C)C(=O)[C@H](Cc2ccccc2)NC(=O)[C@@H](CCCNC(=N)N)NC(=O)[C@H](CCCCCN)NC(=O)[C@H]([C@@H](C)CC)NC1=O [compound 370]
Kd: 1 to 100 nM

Compound: CC[C@H](C)[C@@H]1NC(=O)[C@H](Cc2ccc(O)cc2)NC(=O)[C@H](Cc2ccc(O)cc2)NC(=O)[C@H](CC(N)=O)NC(=O)[C@H](Cc2c[nH]c3ccccc23)NC(=O)[C@H](C(C)C)NC(=O)[C@H](Cc2ccccc2)NC(=O)[C@H](C(C)C)NC(=O)[C@H](C)NC(=O)CSC[C@@H](C(=O)NCC(=O)NCC(=O)N[C@@H](CO)C(=O)NCC(=O)N[C@@H](CO)C(=O)NCC(=O)N[C@@H](CCCCNC(=O)C2CCC(CN3C(=O)C=CC3=O)CC2)C(N)=O)NC(=O)[C@H](Cc2ccc(O)cc2)NC(=O)[C@H](Cc2ccccc2)NC(=O)[C@H](CCCNC(=N)N)NC(=O)[C@H](CCCNC(=N)N)NC(=O)[C@H]([C@@H](C)CC)NC1=O (some centres unmarked) [compound 262]
Kd [2]: 100 to 1000 nM

Compound: CC[C@H](C)[C@@H]1NC(=O)[C@H](Cc2ccc(OC)cc2)NC(=O)[C@H](Cc2ccc(O)cc2)NC(=O)[C@H](CC(N)=O)NC(=O)[C@H](Cc2c[nH]c3ccccc23)N(C)C(=O)[C@H](C(C)C)NC(=O)[C@H](Cc2cccc(Cl)c2)N(C)C(=O)[C@H](CCC(=O)O)NC(=O)[C@H](C)NC(=O)CSC[C@@H](C(=O)NCC(=O)N[C@@H](CCCCN=[N+]=[N-])C(N)=O)NC(=O)[C@H](Cc2ccc(O)cc2)N(C)C(=O)[C@H](Cc2ccccc2)NC(=O)[C@H](CCC(=O)O)NC(=O)[C@H](CCCNC(=N)N)NC(=O)[C@H]([C@@H](C)CC)NC1=O [compound 232] ({CH2CO}-AE[NMePhe(3-Cl)]V[NMeW]NYY(Me)IIREF[NMeY]CG[Lys(N3)]-NH2; thioether N-15)
Kd [2]: 1 to 100 nM

Compound: CC[C@H](C)[C@@H]1NC(=O)[C@H](Cc2ccc(OC)cc2)NC(=O)[C@H](Cc2ccc(O)cc2)NC(=O)[C@H](CC(N)=O)NC(=O)[C@H](Cc2c[nH]c3ccccc23)N(C)C(=O)[C@H](C(C)C)NC(=O)[C@H](Cc2cccc(Cl)c2)N(C)C(=O)[C@H](C(C)C)NC(=O)[C@H](C)NC(=O)CSC[C@@H](C(=O)N[C@H](CCC(=O)O)C(=O)N(C)CC(=O)N[C@H](CCC(=O)O)C(N)=O)NC(=O)[C@H](Cc2ccc(O)cc2)N(C)C(=O)[C@H](Cc2ccccc2)NC(=O)[C@@H](CCCNC(=N)N)NC(=O)C(C)(C)NC(=O)[C@H]([C@@H](C)CC)NC1=O [compound 357]
Kd [3]: 1 to 100 nM

Compound: CC[C@H](C)[C@@H]1NC(=O)[C@H](Cc2ccc(O)cc2)NC(=O)[C@H](Cc2ccc(O)cc2)NC(=O)[C@H](CC(N)=O)NC(=O)[C@H](Cc2c[nH]c3ccccc23)NC(=O)[C@H](C(C)C)NC(=O)[C@H](Cc2ccccc2)NC(=O)[C@H](C(C)C)NC(=O)[C@H](C)NC(=O)CSC[C@@H](C(N)=O)NC(=O)[C@H](Cc2ccc(O)cc2)N(C)C(=O)[C@H](Cc2ccc(O)cc2)NC(=O)[C@H](CCCNC(=N)N)NC(=O)[C@H](CCCNC(=N)N)NC(=O)[C@H](CCC(=O)O)NC1=O [compound 247]
Kd [2]: 1 to 100 nM

Compound: CC[C@H](C)[C@@H]1NC(=O)[C@H](Cc2ccc(OC)cc2)NC(=O)[C@H](Cc2ccc(O)cc2)NC(=O)[C@H](CC(N)=O)NC(=O)[C@H](Cc2c[nH]c3ccccc23)NC(=O)[C@H](C(C)C)NC(=O)[C@H](Cc2cccc(Cl)c2)N(C)C(=O)[C@H](C(C)C)NC(=O)[C@H](C)NC(=O)CSC[C@@H](C(=O)NCC(=O)NCC(=O)N[C@@H](CO)C(=O)NCC(=O)N[C@@H](CO)C(=O)NCC(=O)N[C@@H](CCCCN=[N+]=[N-])C(N)=O)NC(=O)[C@H](Cc2ccc(O)cc2)N(C)C(=O)[C@H](Cc2ccccc2)NC(=O)[C@@H](CCCCN)NC(=O)[C@H](CCCNC(=N)N)NC(=O)[C@H]([C@@H](C)CC)NC1=O [compound 313]
Kd (surface plasmon resonance, peptide vs hTfR, read-out: KD value, hTfR binding by SPR (class symbol)): 1 to 100 nM

Compound: CC[C@H](C)[C@@H]1NC(=O)[C@H](Cc2ccc(O)cc2)NC(=O)[C@H](Cc2ccc(O)cc2)NC(=O)[C@H](CC(N)=O)NC(=O)[C@H](Cc2c[nH]c3ccccc23)NC(=O)[C@H](C(C)C)NC(=O)[C@H](Cc2ccccc2)N(C)C(=O)[C@H](C(C)C)NC(=O)[C@H](C)NC(=O)CSC[C@@H](C(=O)NCC(=O)NCC(=O)N[C@@H](CO)C(=O)NCC(=O)N[C@@H](CO)C(=O)N[C@@H](CO)C(=O)NCC(=O)N[C@@H](CO)C(=O)N[C@@H](CO)C(=O)N[C@@H](CCCCNC(=O)C2CCC(CN3C(=O)C=CC3=O)CC2)C(N)=O)NC(=O)[C@H](Cc2ccc(O)cc2)N(C)C(=O)[C@H](Cc2ccc(O)cc2)NC(=O)[C@H](CCCNC(=N)N)NC(=O)[C@H](CCCNC(=N)N)NC(=O)[C@H]([C@@H](C)CC)NC1=O (some centres unmarked) [compound 189]
Kd (hTfR binding by SPR, hTfR No. 894 variant peptides, linker-added peptides and payload conjugates (Table 2), read-out: KD value obtained from the SPR measurement): 1 to 100 nM

Compound: CC[C@H](C)[C@@H]1NC(=O)[C@H](Cc2ccc(OC)cc2)NC(=O)[C@H](Cc2ccc(O)cc2)NC(=O)[C@H](CC(N)=O)NC(=O)[C@H](Cc2c[nH]c3ccccc23)N(C)C(=O)[C@H](C(C)C)NC(=O)[C@H](Cc2cccc(Cl)c2)N(C)C(=O)[C@H](CCC(=O)O)NC(=O)[C@H](C)NC(=O)CSC[C@@H](C(N)=O)NC(=O)[C@H](Cc2ccc(O)cc2)N(C)C(=O)[C@H](Cc2ccccc2)NC(=O)[C@@H](CCCNC(=N)N)NC(=O)[C@H](C)NC(=O)[C@H]([C@@H](C)CC)NC1=O [compound 226] ({CH2CO}-AE[NMePhe(3-Cl)]V[NMeW]NYY(Me)IIA[dR]F[NMeY]C-NH2; thioether N-15)
Kd (SPR, peptides, linker-added peptides and FITC conjugates, Patent ID 203-230, read-out: KD): 100 to 1000 nM

Second part, the compound after the results:

Kd [1]: 1 to 100 nM
Compound: CC[C@H](C)[C@@H]1NC(=O)[C@H](Cc2ccc(O)cc2)NC(=O)[C@H](Cc2ccc(O)cc2)NC(=O)[C@H](CC(N)=O)NC(=O)[C@H](Cc2c[nH]c3ccccc23)NC(=O)[C@H](C(C)C)NC(=O)[C@H](Cc2ccccc2)N(C)C(=O)[C@H](C(C)C)NC(=O)[C@H](C)NC(=O)CSC[C@@H](C(=O)NCC(=O)N[C@@H](CCCCN)C(N)=O)NC(=O)[C@H](Cc2ccc(O)cc2)N(C)C(=O)[C@H](Cc2ccc(O)cc2)NC(=O)[C@H](CCCNC(=N)N)NC(=O)[C@H](CCCCN)NC(=O)[C@H]([C@@H](C)CC)NC1=O [compound 526]

Kd [3]: 1 to 100 nM
Compound: CC[C@H](C)[C@@H]1NC(=O)[C@H](Cc2ccc(OC)cc2)NC(=O)[C@H](Cc2ccc(O)cc2)NC(=O)[C@H](CC(N)=O)NC(=O)[C@H](Cc2c[nH]c3ccccc23)N(C)C(=O)[C@H](C(C)C)NC(=O)[C@H](Cc2cccc(Cl)c2)N(C)C(=O)[C@H](C(C)C)NC(=O)[C@H](C)NC(=O)CSC[C@@H](C(=O)NCC(=O)NCC(=O)NCC(=O)NCC(=O)N[C@@H](CO)C(=O)N[C@@H](CO)C(=O)N[C@@H](CS)C(N)=O)NC(=O)[C@H](Cc2ccc(O)cc2)N(C)C(=O)[C@H](Cc2ccccc2)NC(=O)[C@@H](CCCCN)NC(=O)[C@H](CCCNC(=N)N)NC(=O)[C@H]([C@@H](C)CC)NC1=O [compound 407]

Kd (surface plasmon resonance, peptide vs hTfR, read-out: KD value for hTfR by SPR (class symbol)): 1 to 100 nM
Compound: CC[C@H](C)[C@@H]1NC(=O)[C@@H]2CCCCNC(=O)[C@H]3CCCN3C(=O)C[C@H](NC(=O)[C@H](C(C)C)NC(=O)[C@H](C)NC(=O)CSC[C@@H](C(N)=O)NC(=O)[C@H](Cc3ccc(O)cc3)N(C)C(=O)[C@H](Cc3ccc(O)cc3)NC(=O)[C@H](CCCNC(=N)N)NC(=O)[C@H](CCCNC(=N)N)NC(=O)[C@H]([C@@H](C)CC)NC1=O)C(=O)N[C@@H](C(C)C)C(=O)N(C)[C@@H](Cc1c[nH]c3ccccc13)C(=O)N[C@@H](CC(N)=O)C(=O)N[C@@H](Cc1ccc(O)cc1)C(=O)N2 [compound 414] ({CH2CO}-AVDV[NMeW]NYKIIRRY[NMeY]C-NH2; linker 3-8 via dP; thioether N-15)

Kd [1]: 100 to 1000 nM
Compound: CC[C@H](C)[C@@H]1NC(=O)[C@H](Cc2ccc(OCCN)cc2)NC(=O)[C@H](Cc2ccc(O)cc2)NC(=O)[C@H](CC(N)=O)NC(=O)[C@H](Cc2c[nH]c3ccccc23)NC(=O)[C@H](C(C)C)NC(=O)[C@H](Cc2ccccc2)N(C)C(=O)[C@H](C(C)C)NC(=O)[C@H](C)NC(=O)CSC[C@@H](C(N)=O)NC(=O)[C@H](Cc2ccc(O)cc2)N(C)C(=O)[C@H](Cc2ccccc2)NC(=O)[C@@H](CCCNC(=N)N)NC(=O)[C@H](CCCNC(=N)N)NC(=O)[C@H]([C@@H](C)CC)NC1=O [compound 523]

Reference: US20230203098A1, “HUMAN TRANSFERRIN RECEPTOR BINDING PEPTIDE” (priority 2020, published 2023)
